Results from patent US20260224563A1, “CRYSTALLINE FORMS OF 6-(3-((5-CHLORO-2-METHOXYPYRIDINE)-3-SULFONAMIDO)-2,6-DIFLUOROPHENYL)-N-METHYLIMIDAZO[1,5-A]PYRAZINE-1-CARBOXAMIDE AND METHODS FOR USING THE SAME” (HIBERCELL, INC., priority 2023, published 2026).
Counter-ions that a name gives are not always drawn.

Legend:
Type in all cases: physicochemical
[1] = Solubility in simulated biological fluid (FaSSGF and FaSSIF) at 37° C., HPLC; pH of filtrate, XRPD of filter cake; conditions: for times more soluble than the free acid (Form II): 0.5-hour mark; for pH (0 h) / Concentration / pH (24 h) / XRPD (filter cake, crystal form): 37° C.; for Concentration / pH (24 h) / XRPD (filter cake, crystal form): listed as K salt Form III; for pH (24 h): filtrate; for XRPD (filter cake, crystal form): up to 24 hours
Protocol: Approximately between 15 mg and 24 mg of sample was suspended in 5 mL or 8 mL of FaSSGF or FaSSIF, respectively. The resulting suspension was shaken at 700 rpm with a QQMSC-100 shaker at 37° C. The suspension was sampled and filtered at certain time intervals, which was achieved by sampling 1000 μL of each suspension which was then filtered and diluted, diluting the resulting filtrate for HPLC analysis to assess solubility. The pH of the filtrate was measured, and the filter cake was analyzed by XRPD.
Approximately 15 mg to 24 mg of sample was suspended in 5 or 8 mL of FaSSGF or FaSSIF, respectively. The resulting suspension was shaken at 700 rpm with a QQMSC-100 shaker at 37° C. The suspension was sampled and filtered at certain time intervals, which was achieved by sampling 1000 μL of each suspension was filtered and diluted, diluting the resulting filtrate for HPLC analysis to assess solubility. The pH of the filtrate was measured, and the filter cake was analyzed by XRPD.
Approximately 15 mg to 24 mg of sample was suspended in 5 or 8 mL of FaSSGF or FaSSIF, respectively. The resulting suspension was shaken at 700 rpm with a QQMSC-100 shaker at 37° C. The suspension was sampled and filtered in certain time interval, which was achieved by sampling 1000 μL of each suspension was filtered and diluted, diluting the resulting filtrate for HPLC analysis to assess solubility. The pH of the filtrate was measured, and the filter cake was analyzed by XRPD.

[2] = Solid-state stability (60° C./closed and 40° C./75% relative humidity open, up to seven days; HPLC purity, XRPD)
Protocol: HPLC method for stability and solubility testing is listed below.
• Column: Ascentis® Express C18 4.6*150 mm*2.7 μm • Mobile Phase A: 0.05% trifluoroacetic acid in water • Mobile Phase B: Methanol • Gradient (T/B %): 0/10, 10/100, 13.5/10, 15/10 • Column Temperature: 40° C. • Detector: DAD; 220 nm • Flow rate: 1.0 mL/min • Injection volume: 1 μL • Concentration: 1 mg/mL • Run time: 15 minutes • Diluent: Methanol:Water 9:1 (v/v)
The solid-state stability of Form III of the potassium salt was performed using the following protocol: • (1) A sample of Form III of the potassium salt was placed at 60° C./closed and 40° C./75% relative humidity (open) conditions for up to seven days. At the onset of the test (day 0) and day 7 of the test, the sample was dissolved in a diluent to prepare a 1 mg/mL solution for HPLC purity analysis. The solid sample was analyzed by XRPD to assess the crystal form of each solid at day 7. […] The XRPD data confirmed the physicochemical stability of Form III of the potassium salt under both closed and open conditions. […]

[3] = Water activity study of the crystalline potassium salt forms (acetone/water suspension, XRPD); conditions: KF wt. %>0.19, 25-50° C., KF wt. %~0.1, 25° C. in acetone/water
Protocol: A water activity study of the potassium salt forms was conducted in two groups: (i) Form I and Form III of the potassium salt, and (ii) Form II and Form III of the potassium salt.
Each suspension was shaken at 700 rpm in a shaker at 25° C., 35° C., 45° C., and 50° C., and the sample was analyzed by XRPD.

[4] = Slurry study of potassium salt Form III in organic solvents and water (XRPD)
Protocol: A slurry study of Form III of the potassium salt in an array of solvents was conducted at 25° C. and 50° C. Approximately 20 mg of Form III of the potassium salt was suspended in 0.5 mL of a solvent (EtOH, IPA, NBA, MEK, acetone, MTBE, EtOAc, IPAc, heptane, DCM, THE, MeCN, and water) and stirred at 25° C. or 50° C. for seven days. Then, the solid sample was collected by vacuum filtration and was analyzed by XRPD.

Question: With CNC(=O)c1ncn2cc(-c3c(F)ccc(NS(=O)(=O)c4cc(Cl)cnc4OC)c3F)ncc12 [Potassium salt Form III, 6-(3-((5-chloro-2-methoxypyridine)-3-sulfonamido)-2,6-difluorophenyl)-N-methylimidazo[1,5-a]pyrazine-1-carboxamide] as the molecule, how does the “times more soluble than the free acid (Form II)” value ([1]; FaSSGF) read?
Answer: about 230 times

Question: What about the “pH (0 h)” value ([1]; FaSSGF) of the same molecule?
Answer: 1.60

Question: What about the Concentration ([1]; FaSSGF, 0.5 h) of the same molecule?
Answer: 46.8 µg/mL

Question: What about the Concentration ([1]; FaSSGF, 2.0 h) of the same molecule?
Answer: 4.6 µg/mL

Question: And the “pH (24 h)” value ([1]; FaSSGF)?
Answer: 1.66

Question: What about the “XRPD (filter cake, crystal form)” value ([1]; FaSSGF) of the same molecule?
Answer: Changed

Question: And the “times more soluble than the free acid (Form II)” value ([1]; FaSSIF)?
Answer: about 100 times

Question: And the “pH (0 h)” value ([1]; FaSSIF)?
Answer: 6.50

Question: What about the Concentration ([1]; FaSSIF, 0.25 h) of the same molecule?
Answer: 155 µg/mL

Question: And the Concentration ([1]; FaSSIF, 0.5 h)?
Answer: 164 µg/mL

Question: What about the Concentration ([1]; FaSSIF, 0.75 h) of the same molecule?
Answer: 160 µg/mL

Question: And the Concentration ([1]; FaSSIF, 1.0 h)?
Answer: 155 µg/mL

Question: What about the Concentration ([1]; FaSSIF, 2.0 h) of the same molecule?
Answer: 14.5 µg/mL

Question: And the “pH (24 h)” value ([1]; FaSSIF)?
Answer: 6.83

Question: What about the “XRPD (filter cake, crystal form)” value ([1]; FaSSIF) of the same molecule?
Answer: Changed

Question: And the “Purity (Area %) 220 nm” value ([2]; 0 day)?
Answer: 99.90 Area %

Question: What about the “XRPD After 7 Days” value ([2]; 40° C./75% RH (open)) of the same molecule?
Answer: Unchanged

Question: And the “Purity (Area %) 220 nm” value ([2]; 40° C./75% RH (open), 7 days)?
Answer: 99.90 Area %

Question: What about the “Purity (Area %) 220 nm” value ([2]; 60° C./closed, 7 days) of the same molecule?
Answer: 99.90 Area %

Question: What about the “XRPD After 7 Days” value ([2]; 60° C./closed, 7 days) of the same molecule?
Answer: Unchanged

Question: And the “physical and chemical stability” value ([2]; both closed (60° C.) and open (40° C./75% RH) conditions for seven days)?
Answer: maintained physical and chemical stability

Question: What about the “Relative stability of crystalline forms” value ([3]; versus Form I of the potassium salt) of the same molecule?
Answer: more stable

Question: What about the “Relative stability of crystalline forms” value ([3]; versus Form II of the potassium salt) of the same molecule?
Answer: more stable

Question: And the “Result at 3 days (XRPD)” value ([4]; slurry in Acetone, 25° C.)?
Answer: Potassium salt Form III

Question: What about the “Result at 7 days (XRPD)” value ([4]; slurry in Acetone, 25° C.) of the same molecule?
Answer: Potassium salt Form III

Question: And the “Result at 3 days (XRPD)” value ([4]; slurry in DCM, 25° C.)?
Answer: Potassium salt Form III

Question: And the “Result at 7 days (XRPD)” value ([4]; slurry in DCM, 25° C.)?
Answer: Potassium salt Form III

Question: And the “Result at 3 days (XRPD)” value ([4]; slurry in DCM, 50° C.)?
Answer: Potassium salt Form III

Question: And the “Result at 7 days (XRPD)” value ([4]; slurry in DCM, 50° C.)?
Answer: Potassium salt Form III

Question: What about the “Result at 3 days (XRPD)” value ([4]; slurry in EtOAc, 25° C.) of the same molecule?
Answer: Potassium salt Form III

Question: What about the “Result at 7 days (XRPD)” value ([4]; slurry in EtOAc, 25° C.) of the same molecule?
Answer: Potassium salt Form III

Question: And the “Result at 3 days (XRPD)” value ([4]; slurry in EtOAc, 50° C.)?
Answer: Potassium salt Form III

Question: And the “Result at 7 days (XRPD)” value ([4]; slurry in EtOAc, 50° C.)?
Answer: Potassium salt Form III

Question: What about the “Result at 3 days (XRPD)” value ([4]; slurry in Heptane, 25° C.) of the same molecule?
Answer: Potassium salt Form III

Question: And the “Result at 7 days (XRPD)” value ([4]; slurry in Heptane, 25° C.)?
Answer: Potassium salt Form III

Question: And the “Result at 3 days (XRPD)” value ([4]; slurry in Heptane, 50° C.)?
Answer: Potassium salt Form III

Question: What about the “Result at 7 days (XRPD)” value ([4]; slurry in Heptane, 50° C.) of the same molecule?
Answer: Potassium salt Form III

Question: What about the “Result at 3 days (XRPD)” value ([4]; slurry in IPA, 25° C.) of the same molecule?
Answer: Potassium salt Form III

Question: And the “Result at 7 days (XRPD)” value ([4]; slurry in IPA, 25° C.)?
Answer: Potassium salt Form III

Question: And the “Result at 3 days (XRPD)” value ([4]; slurry in IPA, 50° C.)?
Answer: Potassium salt Form I

Question: And the “Result at 7 days (XRPD)” value ([4]; slurry in IPA, 50° C.)?
Answer: Potassium salt Form I

Question: What about the “Result at 3 days (XRPD)” value ([4]; slurry in IPAc, 25° C.) of the same molecule?
Answer: Potassium salt Form III

Question: What about the “Result at 7 days (XRPD)” value ([4]; slurry in IPAc, 25° C.) of the same molecule?
Answer: Potassium salt Form III

Question: What about the “Result at 3 days (XRPD)” value ([4]; slurry in IPAc, 50° C.) of the same molecule?
Answer: Potassium salt Form III

Question: What about the “Result at 7 days (XRPD)” value ([4]; slurry in IPAc, 50° C.) of the same molecule?
Answer: Potassium salt Form III

Question: What about the “Result at 3 days (XRPD)” value ([4]; slurry in MEK, 25° C.) of the same molecule?
Answer: Potassium salt Form III

Question: What about the “Result at 7 days (XRPD)” value ([4]; slurry in MEK, 25° C.) of the same molecule?
Answer: Potassium salt Form III

Question: And the “Result at 3 days (XRPD)” value ([4]; slurry in MEK, 50° C.)?
Answer: Potassium salt Form III

Question: What about the “Result at 7 days (XRPD)” value ([4]; slurry in MEK, 50° C.) of the same molecule?
Answer: Potassium salt Form III

Question: What about the “Result at 3 days (XRPD)” value ([4]; slurry in MTBE, 25° C.) of the same molecule?
Answer: Potassium salt Form III

Question: What about the “Result at 7 days (XRPD)” value ([4]; slurry in MTBE, 25° C.) of the same molecule?
Answer: Potassium salt Form III

Question: And the “Result at 3 days (XRPD)” value ([4]; slurry in MTBE, 50° C.)?
Answer: Potassium salt Form III

Question: And the “Result at 7 days (XRPD)” value ([4]; slurry in MTBE, 50° C.)?
Answer: Potassium salt Form III

Question: And the “Result at 3 days (XRPD)” value ([4]; slurry in MeCN, 25° C.)?
Answer: Potassium salt Form III

Question: What about the “Result at 7 days (XRPD)” value ([4]; slurry in MeCN, 25° C.) of the same molecule?
Answer: Potassium salt Form III

Question: And the “Result at 3 days (XRPD)” value ([4]; slurry in MeCN, 50° C.)?
Answer: Potassium salt Form I

Question: And the “Result at 7 days (XRPD)” value ([4]; slurry in MeCN, 50° C.)?
Answer: Potassium salt Form I

Question: And the “Result at 3 days (XRPD)” value ([4]; slurry in NBA, 25° C.)?
Answer: Potassium salt Form III

Question: And the “Result at 7 days (XRPD)” value ([4]; slurry in NBA, 25° C.)?
Answer: Potassium salt Form III

Question: And the “Result at 3 days (XRPD)” value ([4]; slurry in NBA, 50° C.)?
Answer: Potassium salt Form III

Question: And the “Result at 7 days (XRPD)” value ([4]; slurry in NBA, 50° C.)?
Answer: Potassium salt Form III

Question: What about the “Result at 7 days (XRPD)” value ([4]; slurry in THF, 25° C.) of the same molecule?
Answer: Potassium salt Form III

Question: What about the “Result at 7 days (XRPD)” value ([4]; slurry in THF, 50° C.) of the same molecule?
Answer: Potassium salt Form III
